According to patent US9855338B2, “Polyglutamate-amino acid conjugates and methods” (priority 2005, dated 2018):
Where two headings read alike, the source gives them in different places.

How the values were obtained:
[1] = Description: Each polymer (5 mg) was added into a pH buffer (1 mL) and the mixture was sonificated for 2 minutes. Then the mixture was allowed to settle at room temperature for 30 minutes. Solubility was observed by eye and recorded on the scale of 1 to 10, where 1 is highly insoluble, 5 is a cloudy suspension, and 10 is a highly clear solution.
[2] = test system: murine melanoma cells (B16F0) tumor; assay: In vivo tumor tissue uptake, syngeneic tumor model, cryostat sections; conditions: 24 hours after intravenous administration, nu/nu mice
Description: Animals: Nu/nu mice, female, 6-8 weeks (22-25 g). Solitary tumors were produced by injecting 2×10^5 murine melanoma cells (B16F0) to the right thigh subcutaneously. 5-7 days later when the tumor reached about 500 mm^3, the PGA-97-A-Texas Red or Texas Red dye was injected intravenously to the tumor.
PGA-97-A-Texas Red and Texas Red were separately dissolved in DPBS and were filtrated through a 0.2 μm filter before being administrated to the animals. 100 μl of PGA-97-A-Texas Red (TR loading at 2.5%) or Texas Red at 0.1-10 mM was intravenously injected to the tumor using the syngeneic tumor model in Example 19. Tumors were dissected, embedded under optimal cutting temperature and frozen in liquid nitrogen. Cryostat sections (6-15 μm) were made and were fixed with 4% paraformaldehyde with 0.03M of sucrose on ice for 10-30 min. The sections were washed 2 times with DPBS, stained with Hoechst 33342 (1 μg/ml) for 10 minutes, and washed again with DPBS. The sections were then mounted with a fluorescent mounting medium (DakoCytomation) and covered with a coverslip. The cryostat sections of the tumor were observed under laser scan confocal microscopy.
Photographs of the cryostat cross-section of in vivo tumor tissue uptake of PGA-97-A-Texas Red and Texas Red dye alone were taken. For each, three different cross-sections were taken for a total of six images. […]

[3] = test system: B16F0 melanoma cells; assay: In vitro cellular uptake, fluorescence microscopy; format: cell-based, murine
Description: B16F0 cells were purchased from ATCC (CRL-6322, ATCC American Type Culture Collection, Rockville, Md.) and were grown in Dulbecco's modified Eagle's medium (DMEM) with 10% fetal bovine serum and 100 units/mL penicillin. The cells were grown at 37° C. in 5% CO2 environment. The culture medium was removed and discarded. The cells were rinsed with Dulbecco Phosphate Buffer Solution (DPBS), Trypsin-ethylenediaminetetra-acetic acid (EDTA) solution (0.5 ml) was added, and the cells were observed under an inverted microscope to make sure that they were dispersed. Complete growth medium (6.0 to 8.0 ml) was added, and the cells were aspirated by gently pipetting. The cell suspension in appropriate aliquots was transferred to new culture plates. […]
PGA-97-A-Texas Red and Texas Red dye (TR) were separately dissolved in DPBS. […] The treated cells were examined under an OLYMPUS fluorescence microscope, and the excitation and emission wavelengths were measured at 591 and 612 nm, respectively.
Three sample containers containing approximately the same number of B16F0 melanoma cells were incubated with PGA-97-A-Texas Red at 1 μM, PGA-97-A-Texas Red at 0.1 μM, and Texas Red alone at 10 μM, respectively, for 24 hours. Photographs of the in vitro cellular uptake of each container were taken with the camera on an Olympus fluorescence microscope system. […]

| Substance | Solubility ([1]; pH 2) | Solubility ([1]; pH 3) | Solubility ([1]; pH 4) | Solubility ([1]; pH 5) | Solubility ([1]; pH 6) | Solubility ([1]; pH 7) | Solubility ([1]; pH 7.4) | accumulation of Texas red dye in tumor cells in vivo [2] | cellular uptake of Texas red dye ([3]; 0.1 μM to 10 μM, 8-24 hours, fluorescence microscope) | cells that were red (cellular uptake of dye) ([3]; 10 μM, 24 hours, B16F0 melanoma cells) |
| --- | --- | --- | --- | --- | --- | --- | --- | --- | --- | --- |
| Poly-(γ-glutamyl)-poly-L-glutamine [PGPG-19,800] | 10 | 10 | 10 | 10 | 10 | 10 | 10 | – | – | – |
| Texas Red | – | – | – | – | – | – | – | not | not | 0% |
